{
  "source": "patent US20070190070A1",
  "about": "“Methods of using and compositions comprising selective cytokine inhibitory drugs for the treatment and management of disorders of the central nervous system” (priority 2004, published 2007)",
  "key": {"[1]": {"test": "Cardiovascular and respiratory function in anesthetized dogs", "assay_type": "in vivo", "details": "anesthetized Beagle dogs; 400, 800 and 1,200 mg/kg/day via jugular vein infusion; compared to the vehicle control group", "method": "The effects of 3-(3,4-dimethoxy-phenyl)-3-(1-oxo-1,3-dihydro-isoindol-2-yl)-propionamide on cardiovascular and respiratory function are investigated in anesthetized dogs. Two groups of Beagle dogs (2/sex/group) are used. One group receives three doses of vehicle only and the other receives three ascending doses of 3-(3,4-dimethoxy-phenyl)-3-(1-oxo-1,3-dihydro-isoindol-2-yl)-propionamide (400, 800, and 1,200 mg/kg/day). In all cases, doses of 3-(3,4-dimethoxy-phenyl)-3-(1-oxo-1,3-dihydro-isoindol-2-yl)-propionamide or vehicle are successively administered via infusion through the jugular vein separated by intervals of at least 30 minutes."}, "[2]": {"tested_on": "CBP^+/− mutant mice", "details": "cited from earlier work"}, "[3]": {"tested_on": "rat mesencephalonic neurons", "details": "in the presence of the adenylate cyclase activator forskolin; cited from earlier work"}, "[4]": {"tested_on": "C57BL/6 mice injected with MPTP", "details": "cited from earlier work"}, "[5]": {"tested_on": "patients with PD", "details": "cited from earlier work"}},
  "data": [
    {"compound": "COc1ccc(C(CC(N)=O)N2Cc3ccccc3C2=O)cc1OC", "note": "(centres unmarked) [3-(3,4-Dimethoxy-phenyl)-3-(1-oxo-1,3-dihydro-isoindol-2-yl)-propionamide]", "values": [
      {"measurement": "cardiovascular and respiratory changes", "setting": "[1]", "result": "minimal at all doses"}
    ]},
    {"compound": "COc1ccc([C@H]2CNC(=O)[C@H](Cc3cccc(C)c3)C2)cc1OC1CCCC1", "note": "[HT0712]", "values": [
      {"measurement": "long-term memory defects", "setting": "[2]", "result": "abolished the long-term memory defects"}
    ]},
    {"compound": "CCCCOc1cc(CC2CNC(=O)N2)ccc1OC", "note": "(centres unmarked) [Ro-20 1724]", "values": [
      {"measurement": "uptake of dopamine", "setting": "[3]", "result": "stimulate uptake of dopamine"},
      {"measurement": "dopamine depletion in the striatum", "setting": "[4]", "result": "reduce dopamine depletion in the striatum"},
      {"measurement": "loss of tyrosine hydroxylase-immunopositive neurons in the substantia nigra", "setting": "[4]", "result": "reduce loss of tyrosine hydroxylase-immunopositive neurons"}
    ]},
    {"compound": "COc1ccc(C2CNC(=O)C2)cc1OC1CCCC1", "note": "(centres unmarked) [Rolipram]", "values": [
      {"measurement": "long-term memory defects", "setting": "[2]", "result": "abolished the long-term memory defects"},
      {"measurement": "deterioration of the therapeutic action of dopamine against Lisuride", "setting": "[5]; 3 mg per day, patients with PD already under treatment", "result": "no significant deterioration"},
      {"measurement": "dose-limiting side effect", "setting": "[5]; Phase II trials of PD", "result": "nausea"}
    ]},
    {"compound": "COCCOc1cc(OCCOC)cc(-c2nc(C)cc3cc(OC)c(OC)cc23)c1", "note": "[SDZ-MNS 949]", "values": [
      {"measurement": "uptake of dopamine", "setting": "[3]", "result": "stimulate uptake of dopamine"},
      {"measurement": "dopamine depletion in the striatum", "setting": "[4]", "result": "reduce dopamine depletion in the striatum"},
      {"measurement": "loss of tyrosine hydroxylase-immunopositive neurons in the substantia nigra", "setting": "[4]", "result": "reduce loss of tyrosine hydroxylase-immunopositive neurons"}
    ]}
  ]
}
